Key:
[1] = system: human prostate cancer LD1-0034-361929 subcutaneous xenograft tumor model; test: In-vivo pharmacodynamic study on human castration resistant prostate cancer PDX subcutaneous tumor model; parameters: species or system male Nu/Nu nude mice; conditions: abiraterone-resistant CRPC PDX in nude mice, oral intragastric Qd, 39 days, compound 29 15 mg/kg, abiraterone 200 mg/kg; for TGI (%): TGI=1−T/C
Method: Test sample: compound 29 of the present invention, the structure of which is shown above, and which was prepared as described in the detailed description of WO2018108079A1. Abiraterone was obtained from commercially available sources.
Animals, information on the patient from whom the tumor masses were derived, and other materials: human prostate cancer tumor sample LD1-0034-361929, derived from a patient resistant to abiraterone; clinical diagnosis: castration resistant prostate cancer with bladder metastatic lesions, pathological diagnosis: prostate cancer-poorly differentiated adenocarcinoma; • male Nu/Nu nude mice, aged 6-8 weeks.
The tumor masses were inoculated into the right back of mice, and the animals were weighed before administration. Tumor volumes were measured, and grouping was designed in blocks according to the tumor volumes.
Administration was carried out as in the table below.
The animals were monitored daily for health status and mortality, body weight and tumor volume were measured twice a week, and samples were collected after the last administration. The therapeutic effect on tumor volume was evaluated by TGI %, wherein the relative tumor inhibition rate TGI (%): TGI=1−T/C (%). T/C % is the relative tumor proliferation rate, i.e., the percentage of the relative tumor volume in the treatment and control groups at a given time point. T and C are relative tumor volumes (RTVs) of the treatment and control groups at a given time point, respectively. The calculation formula is as follows: T/C %=TRTV/CRTV×100% (TRTV: mean RTV for treatment group; CRTV: mean RTV for vehicle control group; RTV=Vt/V0, wherein V0 is the tumor volume of the animal at the time of grouping, and Vt is the tumor volume of the animal after treatment).

[2] = system: DU145; test: Prostate cancer cell proliferation assay (Cell titer-Glo, 72 h), DU145; assay type: cell-based; conditions: Homo sapiens, DU-145, DU145 cells, inhibition of proliferation, read-out: Compound IC50/nM
Method: (§1) Prostate cancer cell materials: DU145, PC-3, VCaP, and LNCaP clone FGC.
(§2) Test instrument: PE Envision multimode microplate reader.
(§3) Each cell line was seeded in a 384-well plate for adherent culture overnight, and then compounds at different concentrations (10 dose groups, serial 4-fold dilution with DMSO) were added to give a maximum final concentration of 10000 nM, wherein the final DMSO content was 0.33%, and staurosporine at a final concentration of 10 μM was used as a system positive control ([…] inhibition). Negative control wells contained medium with the same amount of DMSO (0% inhibition). The plate was incubated at 37° C., 5% CO2 and 95% humidity for 72 h for later test. 30 μL of Cell titer-Glo reagent was added to each well, and after the plate was incubated at room temperature for 30 min, the final data were read using the microplate reader.
(§4) The data were calculated as follows:
(§5) Inhibition rate (%)=100%−(compound signal−system positive control signal)/(negative control signal−system positive control signal)[…].

[3] = system: PC-3; test: Prostate cancer cell proliferation assay (Cell titer-Glo, 72 h), PC-3; assay type: cell-based; conditions: Homo sapiens, PC-3 cells, inhibition of proliferation, read-out: Compound IC50/nM
Method: as §1, §2, §3, §4, §5

[4] = system: metastatic castration resistant prostate cancer; test: Clinical study in patients with metastatic castration resistant prostate cancer; assay type: in vivo, human; conditions: among 11 mCRPC patients with response evaluation data (10 at 12 mg, 1 at 10 mg), oral once daily, 28-day cycles
Method: Test medicament: compound 29, the structure of which is shown above, and which was prepared as described in the detailed description of WO2018108079A1.
Inclusion criteria: patients with histopathologically or cytologically confirmed metastatic castration resistant prostate cancer for which no standard therapy is available.
Dosing regimen: compound 29 was administered orally at a prescribed dose (such as 8 mg, 10 mg, or 12 mg) once daily, with 28 consecutive days of administration being one cycle.
Response evaluation: among the 11 patients with response evaluation data (10 patients received a single dose of 12 mg, and 1 patient received a single dose of 10 mg), 7 patients achieved partial response (PR), and 2 patients reported stable disease (SD).

[5] = system: VCaP; test: Prostate cancer cell proliferation assay (Cell titer-Glo, 72 h), VCaP; assay type: cell-based; conditions: Homo sapiens, VCaP cells, inhibition of proliferation, read-out: Compound IC50/nM
Method: as §1, §2, §3, §4, §5

[6] = system: LNCaP clone FGC; test: Prostate cancer cell proliferation assay (Cell titer-Glo, 72 h), LNCaP clone FGC; assay type: cell-based; conditions: Homo sapiens, LNCaP clone FGC cells, inhibition of proliferation, read-out: Compound IC50/nM
Method: as §1, §2, §3, §4, §5

Structure (SMILES) | Tumor volume (mm^3) [1] [mm^3] | TGI (%) [1] [%] | IC50 [2] [nM] | IC50 [3] [nM] | patients achieved partial response (PR) [4] [patients] | IC50 [5] [nM] | IC50 [6] [nM]
C[C@]12CC[C@H](O)CC1=CC[C@@H]1[C@@H]2CC[C@]2(C)C(c3cccnc3)=CC[C@@H]12 [Abiraterone, reference compound] | 1549.43 ± 533.15 | −8.97 |  |  |  |  | 
Cc1[nH]nc2c1N=C(c1ccccc1Cl)c1cnc(N3CCOCC3)cc1N2 [Compound 29] | 622.23 ± 247.3 | 58.07 | < 1000 | < 1000 | 7 | < 1000 | 1000 to 10000
